Measurements: US6602487B1, “Methods and tests for producing and for inhibiting coronary artery vasospasms” (Dimera Incorporated, priority 1997, dated 2003)
“Also recorded” adds a separate entry of the source.

Assays:
coronary arteries [1] = experiment: Mechanical injury coronary vasospasm protocol (Protocol 2); format: in vivo, rhesus monkeys (Macaca mulatta); conditions: serotonin 67 μmol/liter IC; U46619 67 nmol/liter or 1 nmol/liter; ET1 ≦10 nmol/liter; AII ≦10 μmol/liter
Description: A separate mechanical injury, Protocol 2, was used in three additional monkeys (one male, two ovx). The injury step of Protocol 2, was deliberate mechanical stretching of the LAD or left main coronary artery with a 5F catheter.
In Protocol 2, steps 1-5 were the same as in Protocol 1. The remaining steps were as follows:
7. IC injection of angiotensin II (sequential doses to 10 μmol/liter);
8. Injury by stretching the coronary artery with a 5F catheter;
9. IC injection of serotonin (sequential doses to 1 mmol/liter);
(§1) 10. IC injection 15 minutes later with 1 or 10 μmol/liter nitrendipine or Ro 40-5967 (mibefradil);
11. IC injection of […] (sequential doses to 10 μmol/liter); and
(§2) 12. IC injection 15 minutes later with 1 or 10 μmol/liter nitrendipine or Ro 40-5967.
Putative coronary vasospasm stimuli were judged primarily by actions on large coronary artery diameters, analyzed as diameter of the most proximal focus of vasospasm at end-diastole from video-taped images recorded at 30 frames/s. We used the image analysis program Image Pro to measure the diameters from single frames acquired with an Imagraph frame grabber in a Pentium computer. We used the 3F catheter tip radio-opaque marker ring (1.0 mm) for calibration and determined minimal and maximal diameters just distal to the constriction. All responses to interventions were also X-ray imaged immediately (15 to 30 s after injection) and at exactly 3 minutes (and 15 minutes if there was vasospasm) after injection.

coronary arteries [2] = system: coronary arteries
coronary arteries [3] = experiment: animal or person; conditions: Macaca mulatta, read-out: EC50 (-log mol/liter) (converted)
coronary arteries [4] = experiment: Relief of coronary vasospasm by intracoronary Ca2+ antagonist; format: in vivo, rhesus monkeys (Macaca mulatta)
Description: The eighth to tenth steps, which were 1 ml injections of 100 μmol/liter serotonin and 1 μmol/liter U46619 combined, were the critical steps. These concentrations of serotonin and U46619, injected in three repeated challenges, provoked drug-induced vasospasm. Sensitivity was determined by whether the vasospasm response occurred to the first, second or third stimulus, allowing at least a 7-minute delay from one injection to the next. For three of these seven ovx monkeys, 1-2 nM endothelin-1 (alone and plus serotonin) and 1 μmol/liter angiotensin-II (alone and plus serotonin) steps were administered between steps 10 and 11 (as additional challenges), but these extra steps never produced vasospasm. […] Step 12 was a Ca^2+ antagonist, either nitrendipine or mibefradil, as a vasodilator to relieve the vasospasm or cardiogenic shock that was the end point.
as §1, §2
To allow monkeys to recover and prevent death due to cardiogenic shock, we followed combined serotonin and U46619 stimulation with an IC Ca^2+ antagonist, either nitrendipine or mibefradil, at the end of the 15 minute vasospasm, except for that in FIG. 2. […] In monkeys with severe vasoconstriction and low heart rates (<90 beats/minute), Ca^2+ antagonists effected increases to 90 to 200 beats/minute due to reversal of atrioventricular […] conduction blocks (evident in the recovery of heart rate shown in Table 2).

SMILES: NCCc1c[nH]c2ccc(O)cc12 [Serotonin, serotonin]
- coronary vasospasm with mechanical injury (5F catheter stretch) (coronary arteries [1]): caused coronary vasospasm at multiple sites; also recorded: Vasospasm was stimulated
- Spasms/N (coronary arteries [2]; Protocol 1, number of animals with vasospasm / number of animals): 0/8
- ED50 (-log mol/liter) (coronary arteries [2]; Protocol 1, syringe concentration of the named vasoconstrictor causing 50% reduction of diameter from control, combined stimuli with 100 μmol/liter serotonin): 2.5 -log mol/liter
- vasoactivity / constriction of arteries on IC injection of single agent (coronary arteries [2]; serotonin 67 nmol/liter to 667 μmol/liter, U46619 6.7 to 2,000 nmol/liter): vasoactive in all animals
- coronary vasospasm on IC injection (no mechanical injury) (coronary arteries [2]; serotonin 6.7 or 200 μmol/liter alone, U46619 6.7 to 2,000 nmol/liter alone, AII up to 200 nmol/liter, combination 6.7 μmol/liter serotonin and 67 nmol/liter U46619, triple combination with ET1): vasospasm could not be found
- EC50 (coronary arteries [3]): 0.000158 mol/L

SMILES: COCC(=O)O[C@]1(CCN(C)CCCc2nc3ccccc3[nH]2)CCc2cc(F)ccc2[C@@H]1C(C)C [mibefradil]
- relief of coronary vasospasm (coronary arteries [4]; IC injection, nitrendipine 1 to 10 μmol/liter, mibefradil 0.1 to 10 μmol/liter, not allowing for dilution): immediately effective in relieving vasospasm
- blood pressures returned to normal ranges (minimums, systolic/diastolic) (coronary arteries [4]; Mibefradil IC 0.1 to 10 μmol/liter, from diastolic levels as low as 10 to 20 mm Hg): 100/60
- blood pressure after IC mibefradil (coronary arteries [4]; one MPA monkey of Example 2, nadir 38/20 mm Hg, after 15 minutes vasospasm): 124/84
